Assay results: patent US20060269978A1, “Method and device for monitoring platelet function” (priority 2005, published 2006)

Test system: platelet function
Test: Platelet Reactivity Test (PRT) on fingerprick whole blood of volunteers before and after taking aspirin
Type: in vivo
Conditions: human volunteers after taking aspirin, single-passageway cartridge with spring, most volunteers
Method: The PRT test is used to activate platelet gel formations using a small (20 microliter) whole blood sample to help identify proper platelet function in the absence of platelet drug therapy and to identify inhibited platelet function in the presence of platelet drug therapy. The test is performed by running a small quantity of blood through a channel restriction that will induce the formation of platelet gels and trap them in a focused area similar to the way platelets are activated and focused in the body.
In use, the cartridge is secured in instrument 400 and preheated for three to five minutes at 33C. The cartridge is then removed from the instrument 400 and 40 μl of blood previously taken from a subject by a pinprick is placed in capillary tube 370, which is already bonded to the capillary tube port 200. The cartridge 150 is then placed back in the instrument 400. The instrument 400 is maintained at 33C. In a preferred embodiment, the cartridge 150 has a bar code that is read by the instrument 400. The instrument 400 will reject the cartridge 150 if the cartridge has been out of the instrument for more than two minutes after the preheating step.
[…] A gel forms and the pumps 350, 351 operate until an end point is reached. […]

For `CC(=O)Oc1ccccc1C(=O)O` [aspirin], the “PRT (platelet reactivity time)” value was “greater than 150 seconds”.
